Experimental data from patent US7183108B1, “Selection and uses of lactic acid bacteria strains modulating non-specific immunity” (Compagnie Gervais Danone, priority 1998, dated 2007).

Columns and labels:
Format in all cases: cell-based, human
Caco-2 cells [1] = assay: Production of TNF-α and IL-1β by Caco-2 cells (ELISA of culture supernatants); details: Caco-2 preactivated with CYTOMIX, with total extract of L. casei; L-NAME 1 mM or PDTC 10 pM (FIG. 3)
Procedure: (§1) Each of the 2 lines was seeded at 2×10^6 cells/well in 24-well plates, in DMEM medium supplemented with 5% of SVF, with 100 U/ml of penicillin, with 100 μg/ml of streptomycin and with 2 mM of L-glutamine. The cells are then incubated for 24 hours in the presence of CYTOMIX, and then for a further 24 hours in the presence of the total extracts of L. casei. For certain experiments, L-NAME (1 mM) or an inhibitor of the NFκB transduction pathway (PDTC: 10 pM) are added at the same time as the bacterial extracts. The culture supernatants are then recovered and the cytokine concentration thereof is determined by ELISA.

HT-29 cells [2] = assay: Production of TNF-α and IL-1β by HT-29 cells (ELISA of culture supernatants); details: HT-29 preactivated with CYTOMIX, with total extract of L. casei; L-NAME 1 mM or PDTC 10 pM (FIG. 3)
Procedure: as §1

Caco-2 cells [3] = assay: Production of nitric oxide (nitrite, GRIESS method) by Caco-2 colon epithelial cell line; details: Caco-2, L-NAME 1 mM, in the presence or absence of total extract of L. casei (3% v/v) (FIG. 2)
Procedure: (§2) Each of the 2 lines was seeded at 2×10^5 cells/well in 96-well plates, in DMEM medium supplemented with 5% of SVF, with 100 U/ml of penicillin, with 100 μg/ml of streptomycin and with 2 mM of L-glutamine.
(§3) The cells are pre-incubated for 24 hours at 37° C., 5% CO2, in the presence of CYTOMIX (IL-1β: 10 ng/ml, TNF-α: 25 ng/ml and γ-IFN: 10^3 U/ml mixture). The cells are then incubated for a further 24 hours in the presence or absence of increasing amounts of total extracts of L. casei (in % vol/vol).
(§4) After incubation, the culture supernatants are recovered and frozen, before determining the nitrite concentration. For certain experiments, L-NAME (1 mM), which is an analogue of L-arginine and constitutes a competitive inhibitor specific for NO-synthases, is added at the same time as the extracts of L. casei.
(§5) The amount of NO produced is evaluated by assaying, in the culture supernatants, the stable derivatives of this radical after reaction thereof in aqueous medium: the nitrites and nitrates. The nitrates are, initially, reduced to nitrites with bacteria expressing nitrate reductase, and the nitrites are then assayed using the GRIESS method. […] The absorbances are then determined at 540 nm using a MULTISCAN MCC340 reader (LABSYSTEM).

HT-29 cells [4] = assay: Production of nitric oxide (nitrite, GRIESS method) by HT-29 colon epithelial cell line; details: HT-29, L-NAME 1 mM, in the presence or absence of total extract of L. casei (3% v/v) (FIG. 2)
Procedure: as §2, §3, §4, §5

S=C(S)N1CCCC1 [PDTC]
inhibited: effect of inhibitor on production of TNF-α (Caco-2 cells [1]) | effect of inhibitor on production of TNF-α (HT-29 cells [2])

COC(=O)[C@@H](N)CCCNC(=N)N[N+](=O)[O-] [L-NAME]
inhibited: effect on CYTOMIX-induced production of NO (Caco-2 cells [3]) | effect on CYTOMIX-induced production of NO (HT-29 cells [4]) | effect of inhibitor on production of TNF-α (Caco-2 cells [1]) | effect of inhibitor on production of TNF-α (HT-29 cells [2])
